Laboratory results taken from US8431597B2, “Benzimidazole derivatives” (Pfizer Inc., priority 2007, dated 2013).
Structures can show the parent of a compound that is named as a salt.

biological target: T1, Smoothened (SMO) (Mus musculus, UniProt P56726); test: Smoothened (SMO)/Sonic Hedgehog (SHh) Transient Transcriptional Activation Assay (Gli-luciferase reporter in C3H10T1/2 cells); format: cell-based, murine; conditions: C3H 10T1/2, 2 μM compound; transfected C3H10T1/2 cells, recombinant human SHh 250 ng/mL, 20 hours, luciferase readout; read-out: SMO CELL % INHIBITION @ 2 μM
T1 construct: C3H10T1/2 cells (ATCC #CCL-226) were split and seeded; endogenous in cells; host or cells: C3H10T1/2 (ATCC #CCL-226)
Method: As noted above, the compounds of the invention are useful as inhibitors of SMO. • Methods for determining the in vitro activity of these compounds are described below: Smoothened (SMO)/Sonic Hedgehog (SHh) Transient Transcriptional Activation Assay
On Day 1, 2×10^6 C3H10T1/2 cells (ATCC #CCL-226) were split and seeded in 12 mL of growth medium Basal Medium Eagle (BME, Invitrogen #21010-046) supplemented with 2 mM L-glutamine (Invitrogen #25030-081), 0.1 units/mL penicillin and 0.1 μg/mL streptomycin (Invitrogen #15140-122), and 10% Fetal Bovine Serum (FBS, Invitrogen #16140-071) in a T-75 flask (Costar #3376). They were allowed to attach for 4 hours at 37° C., 5% CO2. The cells were then transfected using Fugene 6 (Roch #11 814 443 001) in the following reaction: 48 μL Fugene 6 and 745 μL Opti-MEM (Invitrogen #31985-070) were mixed and allowed to sit at room temperature for 5 minutes. 8 μg of pGL4.14/mGli(CS) DNA (10× murine Gli response elements and minimal CS promoter) and 0.5 μg of pEGFP DNA (Clontech) were added, gently mixed and incubated at room temperature for 20 minutes. This entire transfection mix was then added to the T-75 flask containing the cells. The cells were incubated at 37° C., 5% CO2 for 18-24 hours.
On Day 2, the transfected cells were trypsinized and seeded into white 96 well plates (Costar #3917) in 100 μL/well of growth medium at a concentration of 20,000 cells/well. The cells were allowed to recover for 4 hours before adding serum starvation medium Dulbecco's Modified Eagle Medium (DMEM, Invitrogen #21063-029) supplemented with 2 mM L-glutamine, 0.1 units/mL penicillin and 0.1 μg/mL streptomycin, and 0.5% Calf Serum (CS, Invitrogen #26170-043). The growth media was aspirated off, and the cells were rinsed with 100 μL of starvation media. 95 μL of starvation media was then added to each well. The cells were incubated for 20 hours at 37° C., 5% CO2.
On Day 3, cells were dosed with test compounds at a final concentration ranging from 2 μM to 2 nM. Immediately after dosing cells with compounds, recombinant human sonic hedgehog (SHh, R&D Systems #1845-SH) was add to a final concentration of 250 ng/mL. A 25 μg vial of SHh was reconstituted with 250 μL PBS/0.1% BSA to give a 100 ng/μL working stock. This working stock was then diluted 1:20 in starvation media. The transfected cells were incubated with compounds and SHh for 20 hours at 37° C., 5% CO2.
Luciferase assays were conducted on Day 4 using Dual-Glo Luciferase assay system (Promega #E2940) according to Promega's protocol. Briefly, Dual-Glo luciferase reagent was made up and 100 μL were added to each well of the 96 well plate containing media. Plates were shaken at room temperature for 10 minutes, and then read on TopCount (Perkin-Elmer). The luminescence was recorded.

T1 sequence (P56726 33-793): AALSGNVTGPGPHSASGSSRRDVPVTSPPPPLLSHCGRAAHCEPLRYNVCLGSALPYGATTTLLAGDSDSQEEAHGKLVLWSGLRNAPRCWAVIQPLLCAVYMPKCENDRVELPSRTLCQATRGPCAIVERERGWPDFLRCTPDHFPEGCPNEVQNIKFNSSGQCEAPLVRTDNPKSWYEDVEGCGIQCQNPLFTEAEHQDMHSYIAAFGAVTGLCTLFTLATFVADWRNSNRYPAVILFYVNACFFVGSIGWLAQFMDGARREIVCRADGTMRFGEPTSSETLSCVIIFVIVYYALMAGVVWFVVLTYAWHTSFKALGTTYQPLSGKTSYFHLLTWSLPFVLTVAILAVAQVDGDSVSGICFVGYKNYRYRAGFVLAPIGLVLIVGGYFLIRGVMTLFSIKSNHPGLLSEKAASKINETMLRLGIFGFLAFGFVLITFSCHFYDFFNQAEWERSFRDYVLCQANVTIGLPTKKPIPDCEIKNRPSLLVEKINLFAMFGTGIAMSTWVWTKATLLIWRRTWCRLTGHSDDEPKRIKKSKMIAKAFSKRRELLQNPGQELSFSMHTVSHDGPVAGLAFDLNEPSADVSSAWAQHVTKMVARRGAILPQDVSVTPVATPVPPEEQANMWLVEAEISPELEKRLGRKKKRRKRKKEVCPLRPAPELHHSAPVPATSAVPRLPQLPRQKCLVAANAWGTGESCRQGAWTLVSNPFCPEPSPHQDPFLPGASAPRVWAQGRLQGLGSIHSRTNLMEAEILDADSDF

| Compound | inhibition at 2 µM [%] |
| --- | --- |
| CN1CC[C@@H](NC(=O)c2ccc(C#N)cc2)C[C@@H]1c1nc2ccccc2[nH]1 [Example 121, N-[(2R,4R)-2-(1H-benzimidazol-2-yl)-1-methylpiperidin-4-yl]-4-cyanobenzamide trifluoroacetate] | 62.3 |
| COc1ccc(C(=O)N[C@@H]2CCN(C)[C@@H](c3nc4ccccc4[nH]3)C2)cc1 [Example 111, N-[(2R,4R)-2-(1H-benzimidazol-2-yl)-1-methylpiperidin-4-yl]-4-methoxybenzamide trifluoroacetate] | 83.2 |
| CN1CC[C@@H](NC(=O)c2ccc3c(c2Cl)OCCO3)C[C@@H]1c1nc2cc(Cl)ccc2[nH]1 [Example 145, 5-chloro-N-[(2R,4R)-2-(5-chloro-1H-benzimidazol-2-yl)-1-methylpiperidin-4-yl]-2,3-dihydro-1,4-benzodioxine-6-carboxamide triflouroacetate] | 106 |
| N#Cc1ccc(NC(=O)N[C@@H]2CCN(C3CCC3)[C@@H](c3nc4ccccc4[nH]3)C2)cc1 [Example 70, 1-[(2R,4R)-2-(1H-benzimidazol-2-yl)-1-cyclobutyl-piperidin-4-yl]-3-(4-cyanophenyl)urea] | 101 |
| Cc1ccc(NC(=O)N[C@@H]2CCN(C)[C@@H](c3nc4ccccc4[nH]3)C2)cn1 [Example 81, 1-[(2R,4R)-2-(1H-benzimidazol-2-yl)-1-methylpiperidin-4-yl]-3-(6-methylpyridin-3-yl)urea hydrochloride] | 97.8 |
| Cc1cncc(NC(=O)N[C@@H]2CCN(C)[C@@H](c3nc4ccccc4[nH]3)C2)c1 [Example 69, 1-[(2R,4R)-2-(1H-benzimidazol-2-yl)-1-methylpiperidin-4-yl]-3-(5-methylpyridin-3-yl)urea hydrochloride] | 102 |
| CN1CC[C@@H](NC(=O)Nc2ccc(C#N)cc2)C[C@@H]1c1nc2cc(F)ccc2[nH]1 [Example 51, 1-(4-cyanophenyl)-3-[(2R,4R)-2-(5-fluoro-1H-benzimidazol-2-yl)-1-methylpiperidin-4-yl]urea hydrochloride] | 105 |
| CN1CC[C@@H](NC(=O)c2ccc3c(c2)NC(=O)CO3)C[C@@H]1c1nc2ccccc2[nH]1 [Example 100, N-[(2R,4R)-2-(1H-benzimidazol-2-yl)-1-methylpiperidin-4-yl]-3-oxo-3,4-dihydro-2H-1,4-benzoxazine-6-carboxamide hydrochloride] | 63.7 |
| CC(C)c1ccc(NC(=O)N[C@@H]2CCN(C)[C@@H](c3nc4ccccc4[nH]3)C2)cc1 [Example 53, 1-[(2R.4R)-2-(1H-benzimidazol-2-yl)-1-methylpiperidin-4-yl]-3-(4-isopropylphenyl)urea hydrochloride] | 105 |
| CN1CC[C@@H](NC(=O)NCc2ccccc2)C[C@@H]1c1nc2ccccc2[nH]1 [Example 76, 1-[(2R,4R)-2-(1H-benzimidazol-2-yl)-1-methylpiperidin-4-yl]-3-benzylurea hydrochloride] | 100 |
| CN1CC[C@@H](NC(=O)Nc2ccc(C#N)cc2)C[C@@H]1c1nc2ccccc2[nH]1 [Example 31, 1-[(2R,4R)-2-(1H-benzimidazol-2-yl)-1-methylpiperidin-4-yl]-3-(4-cyanophenyl)urea hydrochloride] | 107 |
| CN1CC[C@@H](NC(=O)Nc2ccc(C(F)(F)F)nc2)C[C@@H]1c1nc2ccc(Cl)cc2[nH]1 [Example 73, 1-[(2R,4R)-2-(6-chloro-1H-benzimidazol-2-yl)-1-methylpiperidin-4-yl]-3-[6-(trifluoromethyl)pyridin-3-yl]urea hydrochloride] | 101 |
| COc1ccc(NC(=O)N[C@@H]2CCN(C)[C@@H](c3nc4cc(C#N)ccc4[nH]3)C2)cn1 [Example 134, 1-[(2R,4R)-2-(5-cyano-1H-benzimidazol-2-yl)-1-methylpiperidin-4-yl]-3-(6-methoxypyridin-3-yl)urea hydrochloride] | 105 |
| COc1ccc2nc([C@@H]3C[C@H](NC(=O)Nc4ccc(Cl)c(C(F)(F)F)c4)CN3C)[nH]c2c1 [Example 25, 1-[4-chloro-3-(trifluoromethyl)phenyl]-3-[(3S,5S)-5-(6-methoxy-1H-benzimidazol-2-yl)-1-methylpyrrolidin-3-yl]urea] | 105 |
| CN1CC[C@@H](NC(=O)Nc2ccc(C#N)cc2)C[C@@H]1c1nc2cc(Cl)ccc2[nH]1 [Example 64, 1-[(2R,4R)-2-(5-chloro-1H-benzimidazol-2-yl)-1-methylpiperidin-4-yl]-3-(4-cyanophenyl)urea hydrochloride] | 103 |

Continued, values first:

| inhibition at 2 µM [%] | Compound |
| --- | --- |
| 108 | CN1CC[C@@H](NC(=O)Nc2cc(Cl)cc(Cl)c2)C[C@@H]1c1nc2ccccc2[nH]1 [Example 28, 1-[(2R,4R)-2-(1H-benzimidazol-2-yl)-1-methylpiperidin-4-yl]-3-(3,5-dichlorophenyl)urea hydrochloride] |
| 50.6 | Cc1cc(C(=O)N[C@@H]2CCN(C)[C@@H](c3nc4ccccc4[nH]3)C2)n(C(C)(C)C)n1 [Example 124, N-[(2R,4R)-2-(1H-benzimidazol-2-yl)-1-methylpiperidin-4-yl]-1-tert-butyl-3-methyl-1H-pyrazole-5-carboxamide trifluoroacetate] |
| 104 | COc1ccc2[nH]c([C@H]3C[C@H](NC(=O)Nc4ccc(C(F)(F)F)nc4)CCN3C)nc2c1 [Example 62, 1-[(2R,4R)-2-(5-methoxy-1H-benzimidazol-2-yl)-1-methylpiperidin-4-yl]-3-[6-(trifluoromethyl)pyridin-3-yl]urea hydrochloride] |
| 76.3 | COc1cncc(NC(=O)N[C@@H]2CCN(C)[C@@H](c3nc4ccccc4[nH]3)C2)c1 [Example 96, 1-[(2R,4R)-2-(1H-benzimidazol-2-yl)-1-methylpiperidin-4-yl]-3-(5-methoxypyridin-3-yl)urea hydrochloride] |
| 63.1 | CC(C)(C)OC(=O)N1C[C@H](NC(=O)Nc2ccc(Cl)c(C(F)(F)F)c2)C[C@H]1c1nc2ccccc2[nH]1 [Example 24, tert-butyl (2S,4R)-2-(1H-benzimidazol-2-yl)-4-[({[4-chloro-3-(trifluoromethyl)phenyl]amino}carbonyl)amino]pyrrolidine-1-carboxylate] |
| 105 | CCN1CC[C@@H](NC(=O)c2ccc3c(c2)OCCO3)C[C@@H]1c1nc2ccccc2[nH]1 [Example 44, N-[(2R,4R)-2-(1H-benzimidazol-2-yl)-1-ethylpiperidin-4-yl]-2,3-dihydro-1,4-benzodioxine-6-carboxamide hydrochloride] |
| 95.4 | CC(C)N1C[C@H](NC(=O)Nc2ccc(Cl)c(C(F)(F)F)c2)C[C@H]1c1nc2ccccc2[nH]1 [Example 84, 1-[(3R,5S)-5-(1H-benzimidazol-2-yl)-1-isopropyl-pyrrolidin-3-yl]-3-[4-chloro-3-(trifluoromethyl)phenyl]urea] |
| 106 | O=C(N[C@H]1C[C@@H](c2nc3ccccc3[nH]2)N(C(=O)OCc2ccccc2)C1)c1ccc2c(c1)OCCO2 [Example 10, benzyl (2S,4S)-2-(1H-benzimidazol-2-yl)-4-[(2,3-dihydro-1,4-benzodioxin-6-ylcarbonyl)amino]pyrrolidine-1-carboxylate] |
| 52.2 | CN1CC[C@@H](NC(=O)Cc2cccc(F)c2)C[C@@H]1c1nc2ccccc2[nH]1 [Example 123, N-[(2R,4R)-2-(1H-benzimidazol-2-yl)-1-methylpiperidin-4-yl]-2-(3-fluorophenyl)acetamide trifluoroacetate] |
| 97.8 | CN1CC[C@@H](NC(=O)[C@@H]2COc3ccccc3O2)C[C@@H]1c1nc2ccccc2[nH]1 [Example 105, (2S)-N-[(2R,4R)-2-(1H-benzimidazol-2-yl)-1-methylpiperidin-4-yl]-2,3-dihydro-1,4-benzodioxine-2-carboxamide trifluoroacetate] |
